In BindingDB's records for doi:10.1016/j.bmcl.2005.03.089 (Yunnan University, 2022) one finds IC50 data, which are given here for three compounds.

The target of the experiment is Replicase polyprotein 1ab (Severe acute respiratory syndrome coronavirus 2, UniProt P0DTD1). The experiment can be described thus: Inhibition of SARS-CoV-2 MPro incubated for 5 mins by FRET assay.
What is called IC50 is the concentration that inhibits the measured activity by half. In turn, `CC(C)=CCc1cc(/C=C2\OC(=O)C(c3cc4c(cc3O)OC(C)(C)CC4)=C2O)ccc1O` yielded an IC50 of 10.3 µM.
With `CC(C)=CCc1cc(/C=C2\OC(=O)C(c3cc(CCC(C)(C)O)c(O)cc3O)=C2O)ccc1O`, the IC50 amounted to 7.7 µM.
In turn, `CC(C)(O)C1Cc2cc(/C=C3\OC(=O)C(c4cc5c(cc4O)OC(C)(C)C(O)C5)=C3O)ccc2O1` (stereo not drawn) gave an IC50 of 9.4 µM.
